Experimental data from patent US8648066B2 (Exelixis, Inc., priority 2009, dated 2014).

Assays:
[1] = molecular target: PI3Kα (Homo sapiens, UniProt P42336); assay: PI3K biochemical assay (luciferase-luciferin ATP consumption); settings: 1.5 nM enzyme, 1 μM ATP, 10 μM PIP2; read-out: IC50 for PI3Kα in this assay
Procedure: PI3Kα activity is measured as the percent of ATP consumed following the kinase reaction using luciferase-luciferin-coupled chemiluminescence. Reactions were conducted in 384-well white, medium binding microtiter plates (Greiner). Kinase reactions were initiated by combining test compounds, ATP, substrate (PIP2), and kinase in a 20 μL volume in a buffer solution. The standard PI3Kalpha assay buffer is composed 50 mM Tris, pH 7.5, 1 mM EGTA, 10 mM MgCl2, 1 mM DTT and 0.03% CHAPS. The standard assay concentrations for enzyme, ATP, and substrate are 1.5 nM, 1 μM, and 10 μM, respectively. The reaction mixture was incubated at ambient temperature for approximately 2 h. Following the kinase reaction, a 10 μL aliquot of luciferase-luciferin mix (Promega Kinase-Glo) was added and the chemiluminescence signal measured using a Victor2 plate reader (Perkin Elmer). Total ATP consumption was limited to 40-60% and IC50 values of control compounds correlate well with literature references. Substituting PI3Kα with PI3Kβ, PI3Kγ, or PI3Kδ, the inhibitory activity of the compounds for the other isoforms of I3K were measured.

[2] = molecular target: mTOR/GbL/Raptor (mTORC1) (Homo sapiens, UniProt P42345); assay: mTOR/GbL/Raptor (mTORC1) ELISA assay; type: biochemical; settings: phosphorylation of 4E-BP1; 0.2 nM mTORC1, 10 μM ATP; read-out: IC50 in this assay (mTORC1 ELISA)
How it was run: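 ELISA read-out: phospho-4E-BP1 captured on Ni-chelate plates and detected with anti-phospho antibody plus HRP-anti-IgG luminescence. The kinase step ran 120 min at ambient temperature with 0.2 nM human mTORC1, 10 µM ATP, 50 nM His-4E-BP1, 10 mM MnCl2, pH 7.2 HEPES.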

Sequence of PI3Kα (P42336 whole entry, species assumed): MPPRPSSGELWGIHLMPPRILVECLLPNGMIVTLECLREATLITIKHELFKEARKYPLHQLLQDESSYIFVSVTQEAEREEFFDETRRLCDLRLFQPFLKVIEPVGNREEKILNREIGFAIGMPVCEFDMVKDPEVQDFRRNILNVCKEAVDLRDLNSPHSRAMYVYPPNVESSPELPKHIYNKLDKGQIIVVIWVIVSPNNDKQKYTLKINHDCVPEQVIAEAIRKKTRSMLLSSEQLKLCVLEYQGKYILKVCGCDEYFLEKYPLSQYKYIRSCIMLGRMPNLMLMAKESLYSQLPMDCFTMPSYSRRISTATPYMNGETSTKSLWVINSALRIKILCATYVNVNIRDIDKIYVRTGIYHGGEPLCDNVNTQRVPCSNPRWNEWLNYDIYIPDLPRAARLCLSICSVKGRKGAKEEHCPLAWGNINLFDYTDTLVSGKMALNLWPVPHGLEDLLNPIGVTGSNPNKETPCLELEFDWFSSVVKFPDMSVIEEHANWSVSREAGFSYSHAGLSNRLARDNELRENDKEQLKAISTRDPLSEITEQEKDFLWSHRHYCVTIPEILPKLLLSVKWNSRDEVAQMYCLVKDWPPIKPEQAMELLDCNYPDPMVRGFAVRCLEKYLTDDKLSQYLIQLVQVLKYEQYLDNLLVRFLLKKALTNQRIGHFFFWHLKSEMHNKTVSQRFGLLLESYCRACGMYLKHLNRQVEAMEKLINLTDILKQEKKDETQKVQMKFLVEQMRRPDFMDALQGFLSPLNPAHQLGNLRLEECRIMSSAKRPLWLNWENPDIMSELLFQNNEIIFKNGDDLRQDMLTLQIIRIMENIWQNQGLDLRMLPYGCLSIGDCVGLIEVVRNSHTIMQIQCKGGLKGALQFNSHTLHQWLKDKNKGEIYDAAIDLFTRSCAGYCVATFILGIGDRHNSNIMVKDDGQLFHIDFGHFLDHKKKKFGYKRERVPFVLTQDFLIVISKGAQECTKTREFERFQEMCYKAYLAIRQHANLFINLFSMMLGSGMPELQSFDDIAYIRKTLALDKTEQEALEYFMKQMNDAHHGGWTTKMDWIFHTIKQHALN
Sequence of PI3Kα (P27986 whole entry partner, species assumed): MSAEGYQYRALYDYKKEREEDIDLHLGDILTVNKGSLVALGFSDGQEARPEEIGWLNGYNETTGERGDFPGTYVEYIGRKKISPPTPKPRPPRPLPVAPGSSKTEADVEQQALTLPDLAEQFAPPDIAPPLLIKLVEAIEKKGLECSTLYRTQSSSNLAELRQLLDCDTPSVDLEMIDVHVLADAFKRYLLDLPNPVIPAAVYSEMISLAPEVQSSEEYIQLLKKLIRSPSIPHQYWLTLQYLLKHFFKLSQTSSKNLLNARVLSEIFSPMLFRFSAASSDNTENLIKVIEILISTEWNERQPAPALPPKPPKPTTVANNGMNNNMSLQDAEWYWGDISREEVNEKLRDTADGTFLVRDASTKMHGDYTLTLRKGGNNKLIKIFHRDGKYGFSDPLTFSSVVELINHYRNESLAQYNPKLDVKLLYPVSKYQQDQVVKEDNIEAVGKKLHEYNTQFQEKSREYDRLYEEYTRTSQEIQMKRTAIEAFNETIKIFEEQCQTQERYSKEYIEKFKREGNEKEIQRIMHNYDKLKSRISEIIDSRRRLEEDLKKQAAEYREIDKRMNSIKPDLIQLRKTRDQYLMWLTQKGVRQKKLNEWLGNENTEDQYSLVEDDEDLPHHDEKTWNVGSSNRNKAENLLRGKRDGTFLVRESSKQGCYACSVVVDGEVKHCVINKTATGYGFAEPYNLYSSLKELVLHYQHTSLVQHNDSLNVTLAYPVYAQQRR

IC50 [1]	IC50 [2]	Compound
≥ 2000 nM	250 to 1000 nM	Cc1nc2ncc(-c3ccc4c(c3)CN(c3ncnc5c3ccn5C)CCO4)cc2[nH]1 [Example 557, 7-(2-methyl-1H-imidazo[4,5-b]pyridin-6-yl)-4-(7-methyl-7H-pyrrolo[2,3-d]pyrimidin-4-yl)-2,3,4,5-tetrahydro-1,4-benzoxazepine]
≥ 2000 nM		CNC(=O)c1cccc(-c2ccc3c(c2)CN(c2nc(C)nc4cc(OC)ccc24)CCO3)c1 [Example 644, N-methyl-3-{4-[2-methyl-7-(methyloxy)quinazolin-4-yl]-2,3,4,5-tetrahydro-1,4-benzoxazepin-7-yl}benzamide]
1000 to 2000 nM		CC[C@H]1CCc2c(nc(C)nc2N2CCOc3ccc(-c4cnc5nc([C@H](C)NC(=O)OCc6ccccc6)[nH]c5c4)cc3C2)C1 [Example 646, phenylmethyl [(1S)-1-(6-{4-[(7S)-7-ethyl-2-methyl-5,6,7,8-tetrahydroquinazolin-4-yl]-2,3,4,5-tetrahydro-1,4-benzoxazepin-7-yl}-1H-imidazo[4,5-b]pyridin-2-yl)ethyl]carbamate]
	10 to 50 nM	Cc1nc2ncc(-c3ccc4c(c3)CN(c3ncnc5c3CC[C@@H](C)C5)CCO4)cc2[nH]1 [Example 559, 7-(2-methyl-1H-imidazo[4,5-b]pyridin-6-yl)-4-[(7R)-7-methyl-5,6,7,8-tetrahydroquinazolin-4-yl]-2,3,4,5-tetrahydro-1,4-benzoxazepine]
	250 to 1000 nM	COc1ccc(-c2ccc3c(c2)CN(c2nc(CN(C)C)nc(C)c2C(C)C)CCO3)cc1NS(C)(=O)=O [Example 656, N-[5-(4-{2-[(dimethylamino)methyl]-6-methyl-5-(1-methylethyl)pyrimidin-4-yl}-2,3,4,5-tetrahydro-1,4-benzoxazepin-7-yl)-2-(methyloxy)phenyl]methane-sulfonamide]
	≤ 10 nM	Cc1nc2c(c(N3CCOc4ccc(-c5cnc6sc(N)nc6c5)cc4C3)n1)CC(C)(C)CC2 [Example 669, 6-[4-(2,6,6-trimethyl-5,6,7,8-tetrahydroquinazolin-4-yl)-2,3,4,5-tetrahydro-1,4-benzoxazepin-7-yl][1,3]thiazolo[5,4-b]pyridin-2-amine]
	50 to 250 nM	CC1(C)CCc2ncnc(N3CCOc4ccc(-c5cnc(N)nc5)cc4C3)c2C1 [Example 523, 5-[4-(6,6-dimethyl-5,6,7,8-tetrahydroquinazolin-4-yl)-2,3,4,5-tetrahydro-1,4-benzoxazepin-7-yl]pyrimidin-2-amine]
	10 to 50 nM	C=CCc1c(C)nc(CN(C)C)nc1N1CCOc2ccc(-c3cnc4sc(N)nc4c3)cc2C1 [Example 670, 6-(4-{2-[(dimethylamino)methyl]-6-methyl-5-prop-2-en-1-ylpyrimidin-4-yl}-2,3,4,5-tetrahyhdro-1,4-benzoxazepin-7-yl)[1,3]thiazolo[5,4-b]pyridin-2-amine]
	10 to 50 nM	Cc1nc2c(c(N3CCOc4ccc(-c5cnc6nc(C)[nH]c6c5)cc4C3)n1)CC(C)CC2 (centres unmarked) [Example 460, 4-(2,6-dimethyl-5,6,7,8-tetrahydroquinazolin-4-yl)-7-(2-methyl-1H-imidazo[4,5-b]pyridin-6-yl)-2,3,4,5-tetrahydro-1,4-benzoxazepine]
	250 to 1000 nM	Cc1nc2ncc(-c3ccc4c(c3)CN(c3ncnc(NC(C)C)c3C)CCO4)cc2[nH]1 [Example 525, 5-methyl-N-(1-methylethyl)-6-[7-(2-methyl-1H-imidazo[4,5-b]pyridin-6-yl)-2,3-dihydro-1,4-benzoxazepin-4(5H)-yl]pyrimidin-4-amine]
	10 to 50 nM	Cc1nc2ncc(-c3ccc4c(c3)CN(c3nc(CN(C)C(C)C)nc5c3CC(C)(C)CC5)CCO4)cc2[nH]1 [Example 606, N-({6,6-dimethyl-4-[7-(2-methyl-1H-imidazo[4,5-b]pyridin-6-yl)-2,3-dihydro-1,4-benzoxazepin-4(5H)-yl]-5,6,7,8-tetrahydroquinazolin-2-yl}methyl)-N-methylpropan-2-amine]
	250 to 1000 nM	CC1(C)CCc2ncnc(N3CCOc4ccc(-c5cnc6nccnc6c5)cc4C3)c2C1 [Example 477, 4-(6,6-dimethyl-5,6,7,8-tetrahydroquinazolin-4-yl)-7-pyrido[2,3-b]pyrazin-7-yl-2,3,4,5-tetrahydro-1,4-benzoxazepine]
	50 to 250 nM	COCCc1c(C)nc(CN(C)C)nc1N1CCOc2ccc(-c3cnc4sc(N)nc4c3)cc2C1 [Example 667, 6-(4-{2-[(dimethylamino)methyl]-6-methyl-5-[2-(methyloxy)ethyl]pyrimidin-4-yl}-2,3,4,5-tetrahydro-1,4-benzoxazepin-7-yl)[1,3]thiazolo[5,4-b]pyridin-2-amine]
	50 to 250 nM	Cc1c(N2CCOc3ccc(-c4cnc5nc(C6CC6)[nH]c5c4)cc3C2)ncnc1N(C)[C@@H](C)c1ccccc1 [Example 536, 6-[7-(2-cyclopropyl-1H-imidazo[4,5-b]pyridin-6-yl)-2,3-dihydro-1,4-benzoxazepin-4(5H)-yl]-N,5-dimethyl-N-[(1S)-1-phenylethyl]pyrimidin-4-amine]
	≤ 10 nM	Cc1nc2ncc(-c3ccc4c(c3)CN(c3ncnc5c3CC(C)CC5)CCO4)cc2[nH]1 (centres unmarked) [Example 555, 7-(2-methyl-1H-imidazo[4,5-b]pyridin-6-yl)-4-(6-methyl-5,6,7,8-tetrahydroquinazolin-4-yl)-2,3,4,5-tetrahydro-1,4-benzoxazepine]

Continued, molecule first:

Compound	IC50 [1]	IC50 [2]
COC(=O)Nc1nc2cc(-c3ccc4c(c3)CN(c3ccnc5ccccc35)CCO4)ccc2n1C [Example 115, methyl [1-methyl-5-(4-quinolin-4-yl-2,3,4,5-tetrahydro-1,4-benzoxazepin-7-yl)-1H-benzimidazol-2-yl]carbamate]	1000 to 2000 nM	≥ 2000 nM
Cn1ncc2cc(-c3ccc4c(c3)CN(c3ccnc5ccccc35)CCO4)ccc21 [Example 139, 7-(1-methyl-1H-indazol-5-yl)-4-quinolin-4-yl-2,3,4,5-tetrahydro-1,4-benzoxazepine]	1000 to 2000 nM	
COCCOC(=O)Nc1nc2ccc(-c3ccc4c(c3)CN(c3ccnc5ccccc35)CCO4)cc2[nH]1 [Example 118, 2-(methyloxy)ethyl [6-(4-quinolin-4-yl-2,3,4,5-tetrahydro-1,4-benzoxazepin-7-yl)-1H-benzimidazol-2-yl]carbamate]	1000 to 2000 nM	
CC1(C)CCc2ncnc(N3CCOc4ccc(-c5cnc(N)c(S(=O)(=O)NC[C@H]6CCCN6)c5)cc4C3)c2C1 [Example 382, 2-amino-5-[4-(6,6-dimethyl-5,6,7,8-tetrahydrquinazolin-4-yl)-2,3,4,5-tetrahydro-1,4-benzoxazepin-7-yl]-N-[(2R)-pyrrolidin-2-ylmethyl]pyridine-3-sulfonamide]		10 to 50 nM
CC1(C)CCc2ncnc(N3CCOc4ccc(-c5cnc(N)c(S(=O)(=O)N[C@@H]6CCNC6)c5)cc4C3)c2C1 [Example 387, 2-amino-5-[4-(6,6-dimethyl-5,6,7,8-tetrahydroquinazolin-4-yl)-2,3,4,5-tetrahydro-1,4-benzoxazepin-7-yl]-N-[(3R)-pyrrolidin-3-yl]pyridine-3-sulfonamide]		≤ 10 nM
Cc1ncnc(N2CCOc3ccc(-c4cnc(N)s4)cc3C2)c1Cc1ccc(F)cc1 [Example 124, 5-(4-{5-[(4-fluorophenyl)methyl]-6-methylpyrimidin-4-yl}-2,3,4,5-tetrahydro-1,4-benzoxazepin-7-yl)-1,3-thiazol-2-amine]		≤ 10 nM
COc1ccc2c(N3CCOc4ccc(-c5ccc6nc(C)[nH]c6c5)cc4C3)ncnc2c1OC [Example 34, 4-[7,8-bis(methyloxy)quinazolin-4-yl]-7-(2-methyl-1H-benzimidazol-6-yl)-2,3,4,5-tetrahydro-1,4-benzoxazepine]		50 to 250 nM
c1ccc2c(N3CCOc4ccc(-c5ccc6[nH]ncc6c5)cc4C3)ccnc2c1 [Example 138, 7-(1H-indazol-5-yl)-4-quinolin-4-yl-2,3,4,5-tetrahydro-1,4-benzoxazepine]		≥ 2000 nM
COc1ccc2c(N3CCOc4ccc(-c5cnc(N)c(S(=O)(=O)C[C@@H](C)CO)c5)cc4C3)ncnc2c1 [Example 303, (2S)-3-[(2-amino-5-{4-[7-(methyloxy)quinazolin-4-yl]-2,3,4,5-tetrahydro-1,4-benzoxazepin-7-yl}pyridin-3-yl)sulfonyl]-2-methylpropan-1-ol]		250 to 1000 nM
CCNc1nc2ccc(-c3ccc4c(c3)CN(c3nc(C)nc5ccccc35)CCO4)cc2[nH]1 [Example 228, N-ethyl-6-[4-(2-methylquinazolin-4-yl)-2,3,4,5-tetrahydro-1,4-benzoxazepin-7-yl)-1H-benzimidazol-2-amine]		50 to 250 nM
Cc1nc2ncc(-c3ccc4c(c3)CN(c3nc(CN(C)C)nc5c3CC(C)(C)CC5)CCO4)cc2[nH]1 [Example 353, 1-{6,6-dimethyl-4-[7-(2-methyl-1H-imidazo[4,5-b]pyridin-6-yl)-2,3-dihydro-1,4-benzoxazepin-4(5H)-yl]-5,6,7,8-tetrahydroquinazolin-2-yl}-N,N-dimethylmethanamine]		≤ 10 nM
COc1cc2ncnc(N3CCOc4ccc(-c5cnc6nc(N)[nH]c6c5)cc4C3)c2cc1OC [Example 180, 6-{4-[6,7-bis(methyloxy)quinazolin-4-yl]-2,3,4,5-tetrahydro-1,4-benzoxazepin-7-yl}-1H-imidazo[4,5-b]pyridin-2-amine]		10 to 50 nM
